Where “and” joins values, the source holds several entries; their conditions need not be identical. Identical values can stand only once.
Assays:
[1] = test system: SEAP expression in HEK293T cells; experiment: MISO designer cells (CDH-1 + CDH-3 dual switches); type: cell-based; design: SEAP / Bottom (best-fit value) / Top (best-fit value) / Span (best-fit value): unit not given here; conditions: for logIC50 (best-fit value): drug in nM; for SEAP, Drug-1 turn OFF CDH-1-TF: Fig S13f; for SEAP, Drug-1 turn OFF CDH-1-GEMS: Fig S13g, representative data
Source text: Fig. 5 Orthogonal chemical switches enable implementation of multi-input multi-output control modes in mammalian cells. a Scheme of multi-inputs multi-outputs (MIMO) designer cells where two drugs control two different outputs. b, c Cells were co-transfected with AIR-1/2-GEMS and CDH-3-TF regulate SEAP and Luciferase expression, respectively. […] AIR-1/2-GEMS coupled with SEAP expression circuits were co-transfected with CDH-1/2-TF circuits which control the Luciferase production. Respective drug concentrations ranged from 0.001 nM to 1 µM. […]
We then engineered MISO cells (Fig. 5d) with CDH-1-TF and CDH-3-TF dual switches (Fig. 5e) that encode OFF behaviors controlled by Drug-1 and Drug-3. […] This output behavior is distinct from the typical SISO systems which only show two persistent states (high, low) (Fig. 2c, f). […] This type of output in biological systems could be utilized to produce graded levels of responses that are robust to minor oscillations in drug concentrations, and could be used to dissect fundamental biological processes but also to provide persistent response levels in translational applications.
1-TF and CDH-3-TF circuits. Drug-1 concentrations ranged from 0.001 nM to 1 µM (left) and 1 µM Drug-1 with serial diluted Drug-3 from 0.001 nM to 1 µM (right). g) Quantification of SEAP activity controlled […]
by CDH-1-GEMS and CDH-3-GEMS circuits. […]
Luciferase production (l). b-k) Each data point represents the mean of n = 3 biological replicates, and the dose-dependent curve were fitted using four-parameter nonlinear regression.

[2] = test system: SEAP and Luciferase expression in HEK293T cells; experiment: SIMO designer cells (AIR-1/2-GEMS + CDH-1/2-TF); type: cell-based; conditions: for SEAP: Fig5h, turn ON via AIR-1-GEMS
Source text: Fig. 5 Orthogonal chemical switches enable implementation of multi-input multi-output control modes in mammalian cells. a Scheme of multi-inputs multi-outputs (MIMO) designer cells where two drugs control two different outputs. b, c Cells were co-transfected with AIR-1/2-GEMS and CDH-3-TF regulate SEAP and Luciferase expression, respectively. […] AIR-1/2-GEMS coupled with SEAP expression circuits were co-transfected with CDH-1/2-TF circuits which control the Luciferase production. Respective drug concentrations ranged from 0.001 nM to 1 µM. All values presented are mean ± s.d. of three replicates and curves were fitted by four-parameters nonlinear regression. b, c, e, f, h, i Source data are available in the source data file.
Finally, we engineered SIMO cells (Fig. 5g) using two designed switches that produce ON and OFF responses upon exposure to the same drug. We transfected cells with combinations of AIR-GEMS and CDH-TFs which controlled the expression of the reporter proteins SEAP and Luciferase, respectively. […] Therefore, computational design expanded the repertoire of protein switches controlled by the same compounds that can be used to simultaneous turn ON and OFF synergistic outputs. […]
AIR-1-GEMS coupled with SEAP expression circuits (i) and CDH-1-TF circuits which control the Luciferase production (j). j-k) Quantification of SEAP and Luciferase activities under Drug-2. AIR-2-GEMS coupled with SEAP expression circuits (k) and CDH-2-TF circuits which control the Luciferase production (l). b-k) Each data point represents the mean of n = 3 biological replicates, and the dose-dependent curve were fitted using four-parameter nonlinear regression.

[3] = Fig5e SEAP, CDH-1-TF, + 1 µM Drug-3, four-parameter fit
[4] = Fig5f SEAP, CDH-1-GEMS, + 1 µM Drug-3, three-parameter fit

What does the source list for `CN(C)CC#Cc1ccc(OCCCc2sc(N3CCc4cccc(C(=O)Nc5nc6ccccc6s5)c4C3)nc2C(=O)O)c(F)c1` [Drug-1, A-1155463]?
Bottom (best-fit value) [1, 3]: 10.05; HillSlope (best-fit value) [1, 3]: -1.155; Span (best-fit value) [1, 3]: 11.2; Top (best-fit value) [1, 3]: 21.26; logIC50 (best-fit value) [1, 3]: 0.9359; SEAP ([1]; Fig5e, turn OFF CDH-1-TF, 0.001 nM + 1 µM Drug-3): 16.8327 and 22.6453 and 20.005; SEAP ([1]; Fig5e, turn OFF CDH-1-TF, 0.01 nM + 1 µM Drug-3): 20.9002 and 22.3965 and 21.4625; SEAP ([1]; Fig5e, turn OFF CDH-1-TF, 0.1 nM + 1 µM Drug-3): 21.6157 and 22.7521 and 21.3586; SEAP ([1]; Fig5e, turn OFF CDH-1-TF, 1 nM + 1 µM Drug-3): 21.4038 and 20.3272 and 21.0988; SEAP ([1]; Fig5e, turn OFF CDH-1-TF, 10 nM + 1 µM Drug-3): 13.4848 and 15.392 and 15.5387; SEAP ([1]; Fig5e, turn OFF CDH-1-TF, 100 nM + 1 µM Drug-3): 11.183 and 12.1962 and 11.7139; SEAP ([1]; Fig5e, turn OFF CDH-1-TF, 1000 nM + 1 µM Drug-3): 9.72 and 8.497 and 9.661; Bottom (best-fit value) [1, 4]: 12.41; Span (best-fit value) [1, 4]: 42.02; Top (best-fit value) [1, 4]: 54.44; logIC50 (best-fit value) [1, 4]: 0.8832; SEAP ([1]; Fig5f, turn OFF CDH-1-GEMS, 0.001 nM + 1 µM Drug-3): 55.6364 and 50.5517 and 48.8723; SEAP ([1]; Fig5f, turn OFF CDH-1-GEMS, 0.01 nM + 1 µM Drug-3): 61.2598 and 59.0443 and 45.7788; SEAP ([1]; Fig5f, turn OFF CDH-1-GEMS, 0.1 nM + 1 µM Drug-3): 46.4102 and 62.6516 and 50.3302; SEAP ([1]; Fig5f, turn OFF CDH-1-GEMS, 1 nM + 1 µM Drug-3): 57.5516 and 40.155 and 62.0361; SEAP ([1]; Fig5f, turn OFF CDH-1-GEMS, 10 nM + 1 µM Drug-3): 22.2271 and 39.6828 and 23.9896; SEAP ([1]; Fig5f, turn OFF CDH-1-GEMS, 100 nM + 1 µM Drug-3): 14.7907 and 24.2066 and 13.0137; SEAP ([1]; Fig5f, turn OFF CDH-1-GEMS, 1000 nM + 1 µM Drug-3): 8.999 and 11.1728 and 14.7089; SEAP, Drug-1 turn OFF CDH-1-TF ([1]; Drug-1 0.001 nM): 37.8605 U/L and 37.6407 U/L and 37.2767 U/L; SEAP, Drug-1 turn OFF CDH-1-TF ([1]; Drug-1 0.01 nM): 46.3191 U/L and 36.6964 U/L and 37.3836 U/L; SEAP, Drug-1 turn OFF CDH-1-TF ([1]; Drug-1 0.1 nM): 40.0956 U/L and 39.4221 U/L and 42.0031 U/L; SEAP, Drug-1 turn OFF CDH-1-TF ([1]; Drug-1 1 nM): 42.0045 U/L and 40.1385 U/L and 32.8382 U/L; SEAP, Drug-1 turn OFF CDH-1-TF ([1]; Drug-1 10 nM): 31.0901 U/L and 30.8325 U/L and 26.6542 U/L; SEAP, Drug-1 turn OFF CDH-1-TF ([1]; Drug-1 100 nM): 22.4541 U/L and 19.9215 U/L and 18.0282 U/L; SEAP, Drug-1 turn OFF CDH-1-TF ([1]; Drug-1 1000 nM): 23.3552 U/L and 18.7039 U/L and 14.93 U/L; SEAP, Drug-1 turn OFF CDH-1-GEMS ([1]; Drug-1 0.001 nM): 63.1346 U/L and 76.9207 U/L and 59.8899 U/L; SEAP, Drug-1 turn OFF CDH-1-GEMS ([1]; Drug-1 0.01 nM): 62.4115 U/L and 58.8113 U/L and 53.5466 U/L; SEAP, Drug-1 turn OFF CDH-1-GEMS ([1]; Drug-1 0.1 nM): 64.3309 U/L and 62.8524 U/L and 59.3961 U/L; SEAP, Drug-1 turn OFF CDH-1-GEMS ([1]; Drug-1 1 nM): 47.8019 U/L and 47.3132 U/L and 39.8687 U/L; SEAP, Drug-1 turn OFF CDH-1-GEMS ([1]; Drug-1 10 nM): 42.6016 U/L and 46.6627 U/L and 42.2581 U/L; SEAP, Drug-1 turn OFF CDH-1-GEMS ([1]; Drug-1 100 nM): 43.3282 U/L and 43.4567 U/L and 33.8379 U/L; SEAP, Drug-1 turn OFF CDH-1-GEMS ([1]; Drug-1 1000 nM): 36.4444 U/L and 23.5312 U/L and 44.7329 U/L; SEAP and Luciferase outputs in SIMO cells ([2]; 0.001 nM to 1 µM): simultaneously activated SEAP production and suppressed the expression of Luciferase; SEAP ([2]; 0.001 nM): 19.8743 U/L and 19.5134 U/L and 15.1383 U/L; SEAP ([2]; 0.005 nM): 19.2907 U/L and 17.6338 U/L and 18.8337 U/L; SEAP ([2]; 0.01 nM): 18.6271 U/L and 21.8407 U/L and 37.1349 U/L; SEAP ([2]; 0.05 nM): 37.9776 U/L and 52.7802 U/L and 54.2278 U/L; SEAP ([2]; 0.1 nM): 39.7647 U/L and 50.8999 U/L and 76.4896 U/L; SEAP ([2]; 0.5 nM): 46.7816 U/L and 46.7958 U/L and 68.9342 U/L; SEAP ([2]; 1 nM): 36.1123 U/L and 44.1109 U/L and 47.7004 U/L; SEAP ([2]; 5 nM): 163.102 U/L and 218.766 U/L and 249.722 U/L; SEAP ([2]; 10 nM): 315.129 U/L and 324.74 U/L and 353.471 U/L; SEAP ([2]; 50 nM): 364.997 U/L and 306.053 U/L and 339.025 U/L; SEAP ([2]; 100 nM): 443.801 U/L and 453.931 U/L and 405.497 U/L
